Experimental data taken from patent publication US10947223B2, “Substituted oxazines as beta-secretase inhibitors” (AMGEN INC., priority 2016, dated 2021).

Columns and labels:
Aβ peptide [1] = settings: nonhuman primates; cited from earlier work
[2] = repeated doses up to 200 mg, phase I clinical trial; cited from earlier work
[3] = tested on: pigment epithelium of the rat's eye; settings: higher compound dose given for three months; cited from earlier work
Aβ peptide [4] = settings: oral dose of 95 mg once daily; cited from earlier work
[5] = in vivo; cited from earlier work
Aβ peptide [6] = settings: sustained and dose-dependent manner; cited from earlier work
[7] = phase I clinical trials; cited from earlier work
BACE1 [8] = biological target: T1, BACE1 (Homo sapiens (Human), UniProt P56817); assay: In vitro enzymatic BACE1 FRET assay; format: biochemical; settings: pH 4.5, read-out: BACE1 Enzyme IC50
Description: (§1) In Vitro Enzymatic BACE1 and BACE2 FRET (Fluorescence Resonance Energy Transfer) Assays
(§2) The cDNAs for both human recombinant BACE1 and 2 with C-terminal 6-His Tags were cloned into transient protein expression vectors, which were subsequently transfected into mammalian cell lines. These recombinant proteins were further purified using Ni-NTA affinity chromatography (Qiagen). The assay buffer used in these screens was 0.05 M acetate, pH 4.5, 8% DMSO final, 100 μM genapol (which is a nonionic detergent, below its Critical Micelle Concentration). The β-secretase enzyme (0.02 nM for BACE1 and 0.64 nM for BACE2), which was pre-incubated for one hour with the test compound, typically in about 1 uL of DMSO according to a serial dilution, was added thereto. The assay was effectively started by the addition of FRET substrate (50 nM) and the combination was incubated for one hour. The FRET assay was terminated by the addition of tris buffer, which raised the pH to neutrality, and the fluorescence was determined. The FRET substrate was a peptide with commercially available fluorophore and quencher, on opposite sides of the BACE cleavage site. The specific FRET substrate used in this assay was made by Amgen in-house. Commercially available FRET substrates, for example, the FRET substrate offered with the BACE1 FRET Assay Kit sold by ThermoFisher Scientific (Catalog Number P2985), may be used in this assay with the appropriate modifications, which are within the purview of the ability of a person with ordinary skill in the art. Proteolytic cleavage of the FRET substrate released quenching of fluorescence (excitation 488 nm and emission 590 nm).
Target sequence in this assay (P56817 46-501): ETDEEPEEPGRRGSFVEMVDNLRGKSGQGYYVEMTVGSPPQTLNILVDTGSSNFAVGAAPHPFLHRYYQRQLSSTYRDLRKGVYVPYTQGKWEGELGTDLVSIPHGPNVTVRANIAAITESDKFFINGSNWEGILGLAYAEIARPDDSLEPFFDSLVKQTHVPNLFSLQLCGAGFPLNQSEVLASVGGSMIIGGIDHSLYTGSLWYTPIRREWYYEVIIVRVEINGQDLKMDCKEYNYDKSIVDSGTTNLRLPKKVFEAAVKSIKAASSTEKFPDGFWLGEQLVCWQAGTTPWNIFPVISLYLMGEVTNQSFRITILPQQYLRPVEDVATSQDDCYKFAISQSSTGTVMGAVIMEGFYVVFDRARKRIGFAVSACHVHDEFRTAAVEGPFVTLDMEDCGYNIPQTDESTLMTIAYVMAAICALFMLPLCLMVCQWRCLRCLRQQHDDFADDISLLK

BACE1 [9] = biological target: T1, BACE1; assay: In vitro BACE1 cell-based assay (Aβ40 in conditioned medium, HTRF); settings: Aβ40 in conditioned medium of cells expressing APP, 24 h
Description: In Vitro BACE1 Cell-Based Assay
The cell-based assay measures inhibition or reduction of Aβ40 in conditioned medium of test compound treated cells expressing amyloid precursor protein. Cells stably expressing Amyloid Precursor Protein (APP) were plated at a density of 45K cells/well in 384 well plates (Corning/BioCoat 354663). The test compounds were then added to cells in 22-point dose response concentrations with the starting concentration being 62.5 μM. The compounds were diluted from stock solutions in DMSO and the final DMSO concentration of the test compounds on cells was 0.625%. The cells were cultivated overnight at 37° C. and 5% CO2 in DMEM supplemented with 10% FBS. After 24 h of incubation with the test compounds, the conditioned media was collected and the Aβ40 levels were determined using HTRF (Homogeneous Time Resolved Fluorescence). The IC50 of the compound was calculated from the percent of control or percent inhibition of Aβ 40 as a function of the concentration of the test compound.
The HTRF to detect Aβ40 was performed in 384 well plates (Costar 3658). The antibody pair that were used to detect Aβ 40 from cell supernatants were ConfAb40 antibody (Amgen in-house) and biotinylated 6E10 (BIOLEGEND). As an alternative to ConfAb40, a commercially available antibody, Anti-beta Amyloid 1-40 antibody [BDI350] from Abcam, Cambridge, Mass. 02139-1517 (Product code: ab20068), may be used in this assay. The concentrations were 0.35 μg/mL of ConfAb40 antibody and 1.33 μg/mL of 6E10-biotinylated antibody, as well as 4.5 μg/mL of Streptavidin Allophycocyanin Conjugate (ThermoFisher Scientific) in HTRF Buffer ([…], 1% BSA, 0.5% Tween 20).
The conditioned media was incubated with above antibodies and Streptavidin Allophycocyanin Conjugate for 30-60 minutes at 23° C. The final readout was performed on Envision from PerkinElmer.
Target sequence in this assay (P56817 46-501, species assumed): as the sequence (P56817 46-501) above

human recombinant BACE2 = human recombinant BACE2 (Homo sapiens (Human), UniProt Q9Y5Z0); assay: In vitro enzymatic BACE2 FRET assay; format: biochemical; settings: pH 4.5, read-out: BACE2 Enzyme IC50
Sequence of human recombinant BACE2 (Q9Y5Z0 63-518): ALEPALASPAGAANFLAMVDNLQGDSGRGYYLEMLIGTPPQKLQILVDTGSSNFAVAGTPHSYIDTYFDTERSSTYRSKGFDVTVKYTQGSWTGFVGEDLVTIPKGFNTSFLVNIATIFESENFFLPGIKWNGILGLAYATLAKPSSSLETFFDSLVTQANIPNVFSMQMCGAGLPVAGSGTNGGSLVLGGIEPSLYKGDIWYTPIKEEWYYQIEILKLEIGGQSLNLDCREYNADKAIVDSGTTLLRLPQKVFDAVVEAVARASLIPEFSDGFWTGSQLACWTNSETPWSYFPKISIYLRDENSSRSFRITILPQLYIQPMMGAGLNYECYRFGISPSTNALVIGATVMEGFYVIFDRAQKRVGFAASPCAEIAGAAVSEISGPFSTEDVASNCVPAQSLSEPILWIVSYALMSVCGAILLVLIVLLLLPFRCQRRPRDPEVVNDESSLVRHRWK
Description: as §1, §2

Recombinant CatD = Recombinant CatD (Homo sapiens (Human), UniProt P07339); assay: In vitro enzymatic Cathepsin D (CatD) FRET assay; format: biochemical; settings: pH 3.5, read-out: CatD Enzyme IC50
Sequence of Recombinant CatD (P07339 65-412): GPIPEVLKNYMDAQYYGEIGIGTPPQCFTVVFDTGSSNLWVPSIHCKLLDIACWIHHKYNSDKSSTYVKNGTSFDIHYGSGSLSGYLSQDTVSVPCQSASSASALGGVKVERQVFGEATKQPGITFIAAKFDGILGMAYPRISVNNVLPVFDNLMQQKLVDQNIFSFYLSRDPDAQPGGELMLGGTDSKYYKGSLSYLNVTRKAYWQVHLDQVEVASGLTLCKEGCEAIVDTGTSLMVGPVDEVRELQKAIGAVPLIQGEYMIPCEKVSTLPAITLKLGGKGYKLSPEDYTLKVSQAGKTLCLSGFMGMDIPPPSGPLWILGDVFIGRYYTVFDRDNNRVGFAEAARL
Description: In Vitro Enzymatic Cathepsin D (CatD) FRET Assay
Recombinant CatD was expressed in CHO cells. The assay buffer for CatD was 0.05 M citrate pH 3.5, 10% DMSO final, 5 mM CHAPS. The CatD enzyme (9 nM) was pre-incubated for one hour with inhibitors, typically in about 1 uL of DMSO according to a serial dilution, is added thereto. The assays was effectively started by the addition of different FRET substrates (20 nM for CatD) and the combination was incubated for one hour. The FRET assay was terminated with by addition of tris buffer, which raises the pH to neutrality, and the fluorescence was determined. The FRET substrate was a peptide with commercially available fluorophore and quencher, on opposite sides of the CatD cleavage site. The CatD substrate peptide sequence was based on sequence #1 of Table 1 from Gulnik et al., FEBS Lett. 413(2):379-384 (1997). Proteolytic cleavage of the FRET substrate released quenching of fluorescence (CatD excitation 500 nm and emission 580 nm).
The in vitro CatD FRET assay data for each of the Examples is provided in Table 2, conducted by the first procedure described above. […] Thus, with this surprising selectivity profile, the compounds provided herein are believed to minimize, reduce or completely eliminate any risk of retinal atrophy and abnormal development of the eye and of the retinal pigmented epithelium as it relates to the normal function and activity of CatD.

| SMILES | IC50 (BACE1 [8]) | IC50 (BACE1 [9]) | IC50 (human recombinant BACE2) | IC50 (Recombinant CatD) | other results |
| --- | --- | --- | --- | --- | --- |
| C[C@H]1OC[C@]2(c3cc(NC(=O)c4cnc(C(F)F)cn4)ccc3F)N=C(N)SC[C@H]12 [Example E2609] | – | – | – | – | reduction in Aβ peptide levels in the CSF and plasma (Aβ peptide [1]): significant reduction; clinical safety [2]: did not show clinical significant safety concerns |
| C[C@@]1(c2cc(-c3cncnc3)c(F)cc2F)CCSC(N)=N1 [LY 2811376] | – | – | – | – | eye toxicity finding [3]: damaged the pigment epithelium of the rat's eye |
| C[C@@]1(c2cc(NC(=O)c3ccc(C#N)cn3)ccc2F)C=CSC(N)=N1 [JNJ-54861911] | – | – | – | – | Aβ peptide reduction in CSF (Aβ peptide [4]): up to 95%; ability to cross the blood-brain barrier [5]: demonstrated an ability to cross the blood-brain barrier |
| CN1C(=N)N[C@](C)(c2cc(NC(=O)c3ccc(F)cn3)ccc2F)CS1(=O)=O [MK-8931] | – | – | – | – | CSF Aβ peptide concentrations (Aβ peptide [6]): significantly reduced CSF Aβ peptide concentrations; safety profile [7]: excellent safety profile with no immediately noticeable side effects |
| C[C@]1(c2cc(/C=C(\F)c3ccc(C#N)cn3)ccc2F)N=C(N)OC[C@@H]1OCC(F)(F)F [Example 109, 6-((Z)-2-(3-((4R,5R)-2-amino-4-methyl-5-(2,2,2-trifluoroethoxy)-5,6-dihydro-4H-1,3-oxazin-4-yl)-4-fluorophenyl)-1-fluorovinyl)nicotinonitrile] | 0.125 µM | 0.014 µM | 3.87 µM | 1190 µM | – |
| C[C@]1(c2nc(/C=C(\F)c3ccc(C#N)cn3)ccc2F)N=C(N)OCC1(F)F [Example 116, (R,Z)-6-(2-(6-(2-amino-5,5-difluoro-4-methyl-5,6-dihydro-4H-1,3-oxazin-4-yl)-5-fluoropyridin-2-yl)-1-fluorovinyl)nicotinonitrile] | 1.05 µM | 0.676 µM | 11.4 µM | > 400 µM | – |
| C#CCOc1cnc(/C(F)=C/c2ccc(F)c([C@]3(C)CO[C@@](C)(C(F)(F)F)C(N)=N3)c2)cn1 [Example 107, (2R,5R)-5-(2-fluoro-5-((Z)-2-fluoro-2-(5-(prop-2-yn-1-yloxy)pyrazin-2-yl)vinyl)phenyl)-2,5-dimethyl-2-(trifluoromethyl)-5,6-dihydro-2H-1,4-oxazin-3-amine] | 0.05 µM | 0.112 µM | 0.375 µM | 82.5 µM | – |
